Measured values: EP4733383A1, “CULTURE MEDIUM AND BLOOD CELL CLONE, AND METHOD FOR PRODUCING SAME” (Japan Institute for Health Security, priority 2023, dated 2024)
“Also recorded” adds a separate entry of the source.

Legend:
Assay type in all cases: cell-based
[1] = system: EPCR-positive HSCs (EPCR+HSCs); test: Culture of HSCs in the presence of carboxylic acid derivatives of thyronine; conditions: compared to the control group treated with DMSO alone; Figure 9
Description: T3 represents 3,3',5-triiodo-L-thyronine (T3). T3 acetic acid denotes 3,3',5-triiodo-L-thyroacetic acid (T3AA). 35T2 denotes 3,5-diiodo-L-thyronine (3,5-T2). 35T2 acetic acid denotes 3,5-diiodo-L-thyroacetic acid (3,5-T2AA). 33T2 denotes 3,3'-diiodo-L-thyronine (3,3'-T2).

[2] = system: mouse HSCs; test: Short-term culture of HSCs (one week) with thyroid hormones and metabolites; conditions: 10 µM; for number of HSCs after culture (total cell count per colony): 300 mouse HSCs cultured one week in SF-O3, SCF 100ng/mL, TPO 100ng/mL, vs control (Ctl), Figure 1; for CD48 expression (mean fluorescence intensity of CD48 staining per colony): one week culture, CD48 is a marker for cells differentiating from HSCs, Figure 2
Method: Method: A population containing mouse hematopoietic stem cells was processed using a cell sorter to enrich cells with the surface phenotype CD150^+ CD48^- EPCR^+ Lineage^- Sca-1^+c-Kit^+. These purified cells are hereinafter referred to as mouse HSCs. 300 mouse HSCs were cultured for one week at 37°C under 5% CO2 in medium containing SF-O3 (Sanko Junyaku), SCF 100ng/mL, and TPO 100ng/mL. The number of cells in each colony formed after culture was counted. All subsequent culture experiments were performed at 37°C under 5% CO2. The concentration of each thyroid hormone and its metabolites was set to 10 µM. The control group (Ctl) medium contained no added thyroid hormones or metabolites.
Results: The groups treated with thyroid hormones and their metabolites were compared to the control group (Ctl). […] Circles represent counts per colony. Error bars indicate standard deviation. "Ctl" on the x-axis denotes the absence of added thyroid hormones and their metabolites. […] Circles represent measured values per colony. Error bars indicate standard deviation.
In Figures 1 and 2, T4 denotes thyroxine (T4). T3 denotes 3,3',5-triiodo-L-thyronine (T3). rT3 denotes 3,3',5'-triiodothyronine (rT3). 3,3'T2 denotes 3,3'-diiodo-L-thyronine (3,3'-T2). 3,5T2 denotes 3,5-diiodo-L-thyronine (3,5-T2). 3',5'T2 denotes 3',5'-diiodo-L-thyronine (3',5'-T2). T1AA denotes 3-iodothyroacetic acid (3-T1AA). T1AM denotes 3-iodothyronamine (3-T1AM). L-T0 denotes L-thyronine (T0). DL-T0 denotes the racemic form of thyronine.

[3] = system: mouse-derived HSCs; test: Culture of HSCs in medium containing a thyroid hormone derivative; conditions: medium containing sobetirome
Description: Additionally, HSC differentiation was suppressed.

[4] = system: EPCR+HSC; test: 4-week culture of hematopoietic cells in the presence of T2
Description: The control group received only DMSO. Differentiated blood cells are c-Kit-negative cells. MPP3, MPP2, and MPP1 are multipotent progenitor cells (MPPs) referred to as hematopoietic progenitor cells. EPCR-HSC are EPCR-negative HSCs. EPCR-HSC are slightly less functional than EPCR-positive HSCs. EPCR+HSC are EPCR-positive HSCs. EPCR+HSC represent the most undifferentiated population among HSCs.

[5] = system: mouse-derived HSCs; test: Expansion of mouse-derived HSCs in serum-free medium containing PVA; conditions: serum-free medium containing PVA and T2
Method: Mouse-derived HSCs were cultured in serum-free medium containing PVA and T2 instead of the serum-containing T2 medium described above. HSC expansion was also promoted in this serum-free medium. Furthermore, HSC differentiation was suppressed. At this time, the optimal concentration of T2 was 0.1 µM.

| Compound | proportion of EPCR+HSCs after culturing HSCs [1] | number of HSCs after culture (total cell count per colony) [2] | CD48 expression (mean fluorescence intensity of CD48 staining per colony) [2] | other results |
| --- | --- | --- | --- | --- |
| N[C@@H](Cc1cc(I)c(Oc2ccc(O)cc2)c(I)c1)C(=O)O [3,5-T2, 3,5-Diiodo-L-thyronine] | increased | high | maintained at low levels |  |
| Cc1cc(OCC(=O)O)cc(C)c1Cc1ccc(O)c(C(C)C)c1 [sobetirome, Sobetirome] |  |  |  | HSC differentiation [3]: suppressed; HSC expansion [3]: promoted HSC expansion |
| N[C@@H](Cc1ccc(Oc2cc(I)c(O)c(I)c2)c(I)c1)C(=O)O [rT3, 3,3',5'-Triiodothyronine] |  | high | maintained at low levels |  |
| O=C(O)Cc1cc(I)c(Oc2ccc(O)cc2)c(I)c1 [35T2 acetic acid, 3,5-Diiodo-L-thyroacetic acid] | increased |  |  |  |
| O=C(O)Cc1ccc(Oc2ccc(O)cc2)c(I)c1 [T1AA, 3-Iodo-L-thyroacetic acid] |  | tendency to promote cell proliferation | tendency to reduce CD48 expression |  |
| N[C@@H](Cc1ccc(Oc2ccc(O)c(I)c2)c(I)c1)C(=O)O [3,3'-T2, 3,3'-Diiodo-L-thyronine] | increased | high | maintained at low levels; also recorded: most strongly suppressed CD48 expression |  |
| N[C@@H](Cc1cc(I)c(Oc2cc(I)c(O)c(I)c2)c(I)c1)C(=O)O [T4, thyroxine] |  | high | maintained at low levels |  |
| N[C@@H](Cc1cc(I)c(Oc2ccc(O)c(I)c2)c(I)c1)C(=O)O [T3, 3,3',5-triiodo-L-thyronine] | increased | high | maintained at low levels |  |
| N[C@@H](Cc1ccc(Oc2ccc(O)c(I)c2)c(I)c1)C(=O)O [T2, 3,3'-Diiodo-L-thyronine] |  |  |  | expansion factor of EPCR+HSC ([4]; EPCR+HSC cultured 4 weeks in the presence of T2): 204 fold; EPCR+HSC expansion ([4]; EPCR+HSC cultured 4 weeks in the presence of T2, vs control group (DMSO), Figure 10): expanded more than in the control group; expansion of other cells derived from EPCR+HSC (EPCR-HSC, MPP3, MPP2, MPP1, differentiated blood cells) ([4]; EPCR+HSC cultured 4 weeks in the presence of T2, Figure 10): expanded; HSC differentiation [5]: suppressed; HSC expansion [5]: promoted; optimal concentration of T2 [5]: 0.1 µM |
